Results from ChEMBL document CHEMBL1201862, “PubChem BioAssay data set” (2004).
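48-hour exposure; five concentrations; linearly interpolated endpoints. GI50 = concentration required for 50% inhibition of growth.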 Calls of active or inactive are those of the source. Cut-off read from the data, not from the text of the source: active = GI50 up to about 1.1 µM and inactive = higher.

Legend:
Assay in all cases: growth of human tumour cells (NCI), 48 h
DLD-1 = tested on: DLD-1
NCI-H522 = tested on: NCI-H522
NCI-H23 = tested on: NCI-H23
UACC-257 = tested on: UACC-257
IGROV-1 = tested on: IGROV-1
SNB-75 = tested on: SNB-75
OVCAR-4 = tested on: OVCAR-4
A549 = tested on: A549
KM12 = tested on: KM12
SK-MEL-2 = tested on: SK-MEL-2
NCI-H460 = tested on: NCI-H460
HT-29 = tested on: HT-29
SN12C = tested on: SN12C
SF-539 = tested on: SF-539
SW-620 = tested on: SW-620
SK-MEL-28 = tested on: SK-MEL-28
K562 = tested on: K562
U-251 = tested on: U-251
HOP-92 = tested on: HOP-92
DMS-114 = tested on: DMS-114
DMS-273 = tested on: DMS-273
TK-10 = tested on: TK-10
MOLT-4 = tested on: MOLT-4
HCT-15 = tested on: HCT-15
COLO 205 = tested on: COLO 205
RXF 393 = tested on: RXF 393
OVCAR-8 = tested on: OVCAR-8
UACC-62 = tested on: UACC-62
SK-OV-3 = tested on: SK-OV-3
SK-MEL-5 = tested on: SK-MEL-5
HCC 2998 = tested on: HCC 2998
SF-295 = tested on: SF-295
HOP-18 = tested on: HOP-18
786-0 = tested on: 786-0
UO-31 = tested on: UO-31
SNB-19 = tested on: SNB-19
M14 = tested on: M14
RXF 631 = tested on: RXF 631
SNB-78 = tested on: SNB-78
Malme-3M = tested on: Malme-3M
XF498 = tested on: XF498
SR = tested on: SR
LXFL 529 = tested on: LXFL 529
RPMI-8226 = tested on: RPMI-8226
HL-60 = tested on: HL-60
LOX IMVI = tested on: LOX IMVI
ACHN = tested on: ACHN
OVCAR-3 = tested on: OVCAR-3
KM-20L2 = tested on: KM-20L2
HOP-62 = tested on: HOP-62
CAKI-1 = tested on: CAKI-1
CCRF-CEM = tested on: CCRF-CEM
M19-MEL = tested on: M19-MEL
HCT-116 = tested on: HCT-116
EKVX = tested on: EKVX
A498 = tested on: A498
NCI-H226 = tested on: NCI-H226
OVCAR-5 = tested on: OVCAR-5
SF-268 = tested on: SF-268

In the case of `COC(=O)c1cc(-c2cccn2C)c2c(c1C(=O)OC)c1ccccc1n2C`, the GI50 (DLD-1) is reported as 7.62 µM (inactive), the GI50 (NCI-H522) is reported as 18.1 µM (inactive) and the GI50 (NCI-H23) is reported as 85.7 µM (inactive). The GI50 (UACC-257) was 82 µM (inactive), the GI50 (IGROV-1) was > 100 µM (inactive) and the GI50 (SNB-75) was 71.4 µM (inactive). For the same molecule, the GI50 (OVCAR-4) was 37.8 µM (inactive), the GI50 (A549) was 31.8 µM (inactive) and the GI50 (KM12) was 53.7 µM (inactive). For the same molecule, the GI50 (SK-MEL-2) was > 100 µM (inactive), the GI50 (NCI-H460) was 39.8 µM (inactive) and the GI50 (HT-29) was 6.98 µM (inactive). The GI50 (SN12C) was > 100 µM (inactive), the GI50 (SF-539) was 43.8 µM (inactive) and the GI50 (SW-620) was 85.1 µM (inactive). For the same molecule, the GI50 (SK-MEL-28) was 71.1 µM (inactive), the GI50 (K562) was 13.5 µM (inactive) and the GI50 (U-251) was 70.5 µM (inactive). The GI50 (HOP-92) was 50.5 µM (inactive), the GI50 (DMS-114) was 40.3 µM (inactive) and the GI50 (DMS-273) was 34.1 µM (inactive). For the same molecule, the GI50 (TK-10) was > 100 µM (inactive), the GI50 (MOLT-4) was 3.13 µM (inactive) and the GI50 (HCT-15) was 22.4 µM. For the same molecule, the GI50 (COLO 205) was 32.9 µM (inactive), the GI50 (RXF 393) was > 100 µM (inactive) and the GI50 (OVCAR-8) was 56.9 µM (inactive). For the same molecule, the GI50 (UACC-62) was > 100 µM (inactive), the GI50 (SK-OV-3) was > 100 µM (inactive) and the GI50 (SK-MEL-5) was 44.3 µM (inactive). The GI50 (HCC 2998) was 45.5 µM (inactive), the GI50 (SF-295) was 41.3 µM (inactive) and the GI50 (HOP-18) was > 100 µM (inactive). For the same molecule, the GI50 (786-0) was > 100 µM (inactive), the GI50 (UO-31) was > 100 µM (inactive) and the GI50 (SNB-19) was > 100 µM (inactive). For the same molecule, the GI50 (M14) was 77.4 µM (inactive), the GI50 (RXF 631) was 80.4 µM (inactive) and the GI50 (SNB-78) was > 100 µM (inactive). For the same molecule, the GI50 (Malme-3M) was > 100 µM (inactive), the GI50 (XF498) was > 100 µM (inactive) and the GI50 (SR) was 16.9 µM (inactive). The GI50 (LXFL 529) was 40.2 µM (inactive), the GI50 (RPMI-8226) was 43.7 µM (inactive) and the GI50 (HL-60) was 37.5 µM (inactive). The GI50 (LOX IMVI) was 56 µM (inactive), the GI50 (ACHN) was 17.9 µM (inactive) and the GI50 (OVCAR-3) was 12.7 µM (inactive).
In the case of `CCOc1ccc(NC(=O)CC#N)cc1`, the GI50 (DLD-1) is reported as > 100 µM (inactive), the GI50 (NCI-H522) is reported as > 100 µM (inactive) and the GI50 (NCI-H23) is reported as > 100 µM (inactive). For the same molecule, the GI50 (UACC-257) was > 100 µM (inactive), the GI50 (KM-20L2) was > 100 µM (inactive) and the GI50 (HOP-62) was > 100 µM (inactive). The GI50 (IGROV-1) was > 100 µM (inactive), the GI50 (SNB-75) was > 100 µM (inactive) and the GI50 (OVCAR-4) was > 100 µM (inactive). The GI50 (A549) was > 100 µM (inactive), the GI50 (CAKI-1) was > 100 µM (inactive) and the GI50 (KM12) was > 100 µM (inactive). The GI50 (SK-MEL-2) was > 100 µM (inactive), the GI50 (CCRF-CEM) was > 100 µM (inactive) and the GI50 (M19-MEL) was > 100 µM (inactive). The GI50 (NCI-H460) was > 100 µM (inactive), the GI50 (HT-29) was > 100 µM (inactive) and the GI50 (HCT-116) was > 100 µM (inactive). For the same molecule, the GI50 (SN12C) was > 100 µM (inactive), the GI50 (SW-620) was > 100 µM (inactive) and the GI50 (EKVX) was > 100 µM (inactive). For the same molecule, the GI50 (SK-MEL-28) was > 100 µM (inactive), the GI50 (K562) was > 100 µM (inactive) and the GI50 (U-251) was > 100 µM (inactive). The GI50 (DMS-273) was > 100 µM (inactive), the GI50 (TK-10) was > 100 µM (inactive) and the GI50 (MOLT-4) was > 100 µM (inactive). The GI50 (A498) was > 100 µM (inactive), the GI50 (COLO 205) was > 100 µM (inactive) and the GI50 (RXF 393) was > 100 µM (inactive). For the same molecule, the GI50 (OVCAR-8) was > 100 µM (inactive), the GI50 (UACC-62) was > 100 µM (inactive) and the GI50 (SK-OV-3) was > 100 µM (inactive). The GI50 (SK-MEL-5) was > 100 µM (inactive), the GI50 (HCC 2998) was 6.79 µM (inactive) and the GI50 (SF-295) was > 100 µM (inactive). The GI50 (HOP-18) was > 100 µM (inactive), the GI50 (786-0) was > 100 µM (inactive) and the GI50 (UO-31) was > 100 µM (inactive). For the same molecule, the GI50 (SNB-19) was > 100 µM (inactive), the GI50 (M14) was > 100 µM (inactive) and the GI50 (RXF 631) was > 100 µM (inactive). For the same molecule, the GI50 (SNB-78) was > 100 µM (inactive), the GI50 (Malme-3M) was > 100 µM (inactive) and the GI50 (XF498) was > 100 µM (inactive). For the same molecule, the GI50 (NCI-H226) was > 100 µM (inactive), the GI50 (SR) was > 100 µM (inactive) and the GI50 (OVCAR-5) was > 100 µM (inactive). For the same molecule, the GI50 (LXFL 529) was > 100 µM (inactive), the GI50 (HL-60) was > 100 µM (inactive) and the GI50 (LOX IMVI) was > 100 µM (inactive). The GI50 (ACHN) was > 100 µM (inactive), the GI50 (SF-268) was > 100 µM (inactive) and the GI50 (OVCAR-3) was > 100 µM (inactive).
With `CC1CC(C2=CC=CCS2)=Nc2ccccc2S1` (configuration not stated) the GI50 (DLD-1) was 70 µM (inactive), the GI50 (NCI-H522) was 92.3 µM (inactive) and the GI50 (NCI-H23) was > 100 µM (inactive). For the same molecule, the GI50 (UACC-257) was 12.3 µM (inactive), the GI50 (KM-20L2) was > 100 µM (inactive) and the GI50 (HOP-62) was > 100 µM (inactive). For the same molecule, the GI50 (IGROV-1) was > 100 µM (inactive), the GI50 (SNB-75) was 14.1 µM (inactive) and the GI50 (OVCAR-4) was > 100 µM (inactive). For the same molecule, the GI50 (A549) was > 100 µM (inactive), the GI50 (CAKI-1) was > 100 µM (inactive) and the GI50 (KM12) was > 100 µM (inactive). For the same molecule, the GI50 (SK-MEL-2) was > 100 µM (inactive), the GI50 (CCRF-CEM) was > 100 µM (inactive) and the GI50 (M19-MEL) was > 100 µM (inactive). For the same molecule, the GI50 (NCI-H460) was > 100 µM (inactive), the GI50 (HCT-116) was 84.9 µM (inactive) and the GI50 (SN12C) was > 100 µM (inactive). The GI50 (SF-539) was > 100 µM (inactive), the GI50 (SW-620) was > 100 µM (inactive) and the GI50 (EKVX) was > 100 µM (inactive). The GI50 (SK-MEL-28) was > 100 µM (inactive), the GI50 (K562) was > 100 µM (inactive) and the GI50 (U-251) was > 100 µM (inactive). The GI50 (HOP-92) was 48.4 µM (inactive), the GI50 (DMS-273) was > 100 µM (inactive) and the GI50 (TK-10) was > 100 µM (inactive). The GI50 (MOLT-4) was > 100 µM (inactive), the GI50 (HCT-15) was greater than 100 µM and the GI50 (A498) was > 100 µM (inactive). For the same molecule, the GI50 (COLO 205) was > 100 µM (inactive), the GI50 (RXF 393) was > 100 µM (inactive) and the GI50 (OVCAR-8) was > 100 µM (inactive). For the same molecule, the GI50 (UACC-62) was > 100 µM (inactive), the GI50 (SK-OV-3) was > 100 µM (inactive) and the GI50 (SK-MEL-5) was > 100 µM (inactive). The GI50 (HCC 2998) was 80.4 µM (inactive), the GI50 (SF-295) was > 100 µM (inactive) and the GI50 (HOP-18) was > 100 µM (inactive). The GI50 (786-0) was > 100 µM (inactive), the GI50 (UO-31) was > 100 µM (inactive) and the GI50 (SNB-19) was 71.3 µM (inactive). The GI50 (M14) was > 100 µM (inactive), the GI50 (RXF 631) was > 100 µM (inactive) and the GI50 (SNB-78) was > 100 µM (inactive). For the same molecule, the GI50 (Malme-3M) was > 100 µM (inactive), the GI50 (XF498) was > 100 µM (inactive) and the GI50 (OVCAR-5) was > 100 µM (inactive). The GI50 (LXFL 529) was > 100 µM (inactive), the GI50 (RPMI-8226) was 97.5 µM (inactive) and the GI50 (HL-60) was > 100 µM (inactive). For the same molecule, the GI50 (LOX IMVI) was > 100 µM (inactive), the GI50 (ACHN) was > 100 µM (inactive) and the GI50 (SF-268) was > 100 µM (inactive). For the same molecule, the GI50 (OVCAR-3) was > 100 µM (inactive).
